Experiment: RP, Waters ACQUITY Premier BEH C18, 100 × 2.1 mm, 1.7 µm, 40 °C, 0.3 to 0.4 mL/min, estimated dead time 0.73 min; A: water + 0.1% formic acid; B: acetonitrile + 0.1% formic acid; gradient (min/%B) 0/0.5 0.1/0.5 10/80 10.1/99.5 12/0.5 12.1/0.5 14.5/0.5
Conditions: stereoisomer not certain

| Structure (SMILES) | LC retention time |
| --- | --- |
| O=C(O)CCCCC(=O)O [ADIPATE] | 3.99 min |
| Nc1ncnc2c1ncn2C1OC(COP(=O)(O)OP(=O)(O)OC2OC(CO)C(O)C(O)C2O)C(O)C1O (stereo not drawn) [ADP-GLUCOSE] | 1.16 min |
| O=c1ccc2cc(OC3OC(CO)C(O)C(O)C3O)c(O)cc2o1 (stereo not drawn) [AESCULIN] | 3.14 min |
| O=C(OCC1=CC(O)C2C=COC(OC3OC(CO)C(O)C(O)C3O)C12)c1ccc(O)cc1 (stereo not drawn) [AGNUSIDE] | 4.2 min |
| NC(=O)c1ncn(C2OC(COP(=O)(O)O)C(O)C2O)c1N (stereo not drawn) [AICAR] | 1.28 min |
| O=c1cc(-c2ccc(O)c(-c3c(O)cc(O)c4c(=O)cc(-c5ccc(O)cc5)oc34)c2)oc2cc(O)cc(O)c12 [AMENTOFLAVONE] | 6.35 min |
| NC(CCCC(=O)O)C(=O)O (stereo not drawn) [AMINOADIPATE] | 0.943 min |
| N#CC(OC1OC(COC2OC(CO)C(O)C(O)C2O)C(O)C(O)C1O)c1ccccc1 (stereo not drawn) [AMYGDALIN] | 3.78 min |
| O=c1ccc2ccc3occc3c2o1 [ANGELICIN] | 6.41 min |
| Nc1ccccc1S(=O)(=O)O [ANILINE-2-SULFONATE] | 2.54 min |
| O=c1cc(-c2ccc(O)cc2)oc2cc(O)cc(O)c12 [APIGENIN] | 6.02 min |
| CCCCCC=CCC=CCC=CCC=CCCCC(=O)O [ARACHIDONIC ACID] | 9 min |
| COc1cc(CC2C(=O)OCC2Cc2ccc(OC)c(OC)c2)ccc1O (stereo not drawn) [ARCTIGENIN] | 6.63 min |
| COC(=O)C1=CCCN(C)C1 [ARECOLINE] | 1.02 min |
| O=C(O)CCCCCCCC(=O)O [AZELATE] | 5.52 min |
| O=C(O)c1ccccc1 [BENZOATE] | 4.51 min |
| COc1c2ccoc2cc2oc(=O)ccc12 [BERGAPTEN] | 6.74 min |
| CC(C)(C)C1(O)CC2OC(=O)CC23C(=O)OC2OC(=O)C(O)C231 (stereo not drawn) [BILOBALIDE] | 4.91 min |
| COc1ccc(-c2coc3cc(O)cc(O)c3c2=O)cc1 [BIOCHANIN A] | 7.15 min |
| CCCCC(CC)COC(=O)c1ccccc1C(=O)OCC(CC)CCCC (stereo not drawn) [BIS(2-ETHYLHEXYL)PHTHALATE] | 10.7 min |
| CCCC(=O)O [BUTANOATE] | 3.99 min |

| Structure (SMILES) | LC retention time |
| --- | --- |
| CCCC(=O)OC(CC(=O)[O-])C[N+](C)(C)C (stereo not drawn) [BUTYRYLCARNITINE] | 3.89 min |
| Cn1c(=O)c2c(ncn2C)n(C)c1=O [CAFFEINE] | 4.3 min |
| CC(C)c1cc2c(c(O)c1O)C1(C(=O)O)CCCC(C)(C)C1CC2 (stereo not drawn) [CARNOSIC ACID] | 8.06 min |
| COc1ccccc1C=CC=O [CASSIASTEAROPTENE] | 7.94 min |
| COc1ccc(-c2oc3cc(OC)c(OC)c(O)c3c(=O)c2OC)cc1O [CASTICIN] | 6.98 min |
| NCCOP(=O)(O)OP(=O)(O)OCC1OC(n2ccc(N)nc2=O)C(O)C1O (stereo not drawn) [CDP-ETHANOLAMINE] | 0.882 min |
| CC1=C(O)C(=O)C=C2C1=CC=C1C2(C)CCC2(C)C3CC(C)(C(=O)O)CCC3(C)CCC12C (stereo not drawn) [CELASTROL] | 8.6 min |
| O=C(O)CNC(=O)C=Cc1ccccc1 [CINNAMOYLGLYCINE] | 5.02 min |
| O=C(OC1OC2COC(=O)c3cc(O)c(O)c(O)c3-c3c(cc(O)c(O)c3O)C(=O)OC(C2O)C1O)c1cc(O)c(O)c(O)c1 (stereo not drawn) [CORILAGIN] | 4.37 min |
| O=c1oc2cc(O)ccc2c2oc3cc(O)ccc3c12 [COUMESTEROL] | 6.04 min |
| CN(CC(=O)O)C(=N)N [CREATINE] | 0.905 min |
| CC(=O)OC(C)(C)C=CC(=O)C(C)(O)C1C(O)CC2(C)C3CC=C4C(CC(O)C(=O)C4(C)C)C3(C)C(=O)CC12C (stereo not drawn) [CUCURBITACIN B] | 7.07 min |
| COc1cc(C=CC(=O)CC(=O)C=Cc2ccc(O)c(OC)c2)ccc1O [CURCUMIN] | 7.18 min |
| Nc1nc2c(ncn2C2OC3COP(=O)(O)OC3C2O)c(=O)[nH]1 (stereo not drawn) [CYCLIC GMP] | 3.35 min |
| Nc1ccn(C2OC(CO)C3OP(=O)(O)OC32)c(=O)n1 (stereo not drawn) [CYTIDINE 2',3'-CYCLIC PHOSPHATE] | 0.94 min |
| Nc1ccn(C2OC(COP(=O)(O)O)C(O)C2O)c(=O)n1 (stereo not drawn) [CYTIDINE MONOPHOSPHATE] | 0.941 min |
| CNCC(O)c1ccc(O)cc1 [D-SYNEPHRINE] | 0.927 min |
| O=c1c(-c2ccc(O)cc2)coc2cc(O)ccc12 [DAIDZEIN] | 5.4 min |
| CCCCCCCCCC(=O)OC(CC(=O)[O-])C[N+](C)(C)C (stereo not drawn) [DECANOYLCARNITINE] | 6.92 min |
| C[N+](C)(C)CCCC(=O)[O-] [DEOXYCARNITINE] | 0.901 min |
| Nc1nc2c(ncn2C2CC(O)C(COP(=O)(O)O)O2)c(=O)[nH]1 (stereo not drawn) [DEOXYGUANOSINE-MONOPHOSPHATE] | 1.47 min |

Further lines, results first:

| LC retention time | Structure (SMILES) |
| --- | --- |
| 3.28 min | Nc1ncnc2c1ncn2C1OC(CO)C(O)C1O (stereo not drawn) [ADENOSINE] |
| 0.945 min | NC(=O)c1ncn(C2OC(CO)C(O)C2O)c1N (stereo not drawn) [AICA-RIBOSIDE] |
| 5.1 min | O=C1c2c(O)cccc2C(C2OC(CO)C(O)C(O)C2O)c2cc(CO)cc(O)c21 (stereo not drawn) [ALOIN] |
| 8.32 min | COc1c(O)cc2oc3cc(O)c(CC=C(C)C)c(O)c3c(=O)c2c1CC=C(C)C [ALPHA-MANGOSTIN] |
| 1.12 min | OCC1OC(Oc2ccc(O)cc2)C(O)C(O)C1O (stereo not drawn) [ARBUTIN] |
| 7.17 min | CC1CCC2(C(=O)O)CCC3(C)C(=CCC4C5(C)CC(O)C(O)C(C)(CO)C5CCC43C)C2C1C (stereo not drawn) [ASIATIC ACID] |
| 5.17 min | O=C(O)C1OC(Oc2cc3oc(-c4ccccc4)cc(=O)c3c(O)c2O)C(O)C(O)C1O (stereo not drawn) [BAICALIN] |
| 2.13 min | NC(=O)c1ccc[n+](C2OC(COP(=O)(O)OP(=O)(O)OCC3OC(n4cnc5c(N)ncnc54)C(O)C3O)C(O)C2O)c1 (stereo not drawn) [BETA-NICOTINAMIDE ADENINE DINUCLEOTIDE] |
| 4.59 min | O=C(O)CCCCC1SCC2NC(=O)NC21 (stereo not drawn) [BIOTIN] |
| 11.3 min | CC(C=CC=C(C)C=CC1=C(C)C(=O)CCC1(C)C)=CC=CC=C(C)C=CC=C(C)C=CC1=C(C)C(=O)CCC1(C)C [CANTHAXANTHIN] |
| 7.3 min | COc1cc(CNC(=O)CCCCC=CC(C)C)ccc1O [CAPSAICIN] |
| 7.13 min | CC(CCC(=O)O)C1CCC2C3C(O)CC4CC(O)CCC4(C)C3CC(O)C12C (stereo not drawn) [CHOLATE] |
| 4.12 min | O=C(O)C[C@H]1CC[C@@H](O)CC1 [CIS-4-HYDROXYCYCLOHEXYLACETIC ACID] |
| 6.74 min | CC12CCC(=O)C=C1CCC1C2CCC2(C)C1CCC2(O)C(=O)CO (stereo not drawn) [CORTEXOLONE] |
| 6.67 min | CC12CCC(=O)C=C1CCC1C2C(O)CC2(C)C(C(=O)CO)CCC12 (stereo not drawn) [CORTICOSTERONE] |
| 6.92 min | CC(=O)OCC(=O)C1(O)CCC2C3CCC4=CC(=O)CCC4(C)C3C(O)CC21C (stereo not drawn) [CORTISOL 21-ACETATE] |
| 6.06 min | CC12CCC(=O)C=C1CCC1C2C(O)CC2(C)C1CCC2(O)C(=O)CO (stereo not drawn) [CORTISOL] |
| 6.12 min | CC12CCC(=O)C=C1CCC1C2C(=O)CC2(C)C1CCC2(O)C(=O)CO (stereo not drawn) [CORTISONE] |
| 4.75 min | O=c1cc(-c2ccc(O)cc2)oc2cc(OC3OC(CO)C(O)C(O)C3O)cc(O)c12 (stereo not drawn) [COSMOSIIN] |
| 7.65 min | C=C1C(=O)OC2C=C(C)CCC=C(C)CCC12 (stereo not drawn) [COSTUNOLIDE] |
| 3.67 min | O=C(C=Cc1ccc(O)c(O)c1)OC1C(O)CC(O)(C(=O)O)CC1O (stereo not drawn) [CRYPTOCHLOROGENIC ACID] |

| LC retention time | Structure (SMILES) |
| --- | --- |
| 7.47 min | O=C(O)CCCCCCCCCCCNC(=O)NC1CCCCC1 [CUDA] |
| 7.93 min | C=C1CC2(O)OC3(CC2C(C)C)C(C)CCC13 (stereo not drawn) [CURCUMOL] |
| 3.35 min | Nc1ncnc2c1ncn2C1OC2COP(=O)(O)OC2C1O (stereo not drawn) [CYCLIC AMP] |
| 5.27 min | O=C(O)C1CCCCC1 [CYCLOHEXANECARBOXYLIC ACID] |
| 1.41 min | Nc1ccn(C2OC(CO)C(O)C2O)c(=O)n1 (stereo not drawn) [CYTIDINE] |
| 4.08 min | O=c1c(-c2ccc(O)cc2)coc2cc(OC3OC(CO)C(O)C(O)C3O)ccc12 (stereo not drawn) [DAIDZIN] |
| 7.1 min | CCCCCC1CCCC(=O)O1 (stereo not drawn) [DELTA-DECALACTONE] |
| 2.07 min | Nc1ncnc2c1ncn2C1CC(O)C(COP(=O)(O)O)O1 (stereo not drawn) [DEOXYADENOSINE MONOPHOSPHATE] |
| 3.33 min | Nc1ncnc2c1ncn2C1CC(O)C(CO)O1 (stereo not drawn) [DEOXYADENOSINE] |
| 7.67 min | CC(CCC(=O)O)C1CCC2C3CCC4CC(O)CCC4(C)C3CC(O)C12C (stereo not drawn) [DEOXYCHOLATE] |
| 7.24 min | CC(CCC(=O)NCC(=O)O)C1CCC2C3CCC4CC(O)CCC4(C)C3CC(O)C12C (stereo not drawn) [DEOXYCHOLIC ACID GLYCINE CONJUGATE] |
| 7.64 min | CC(=O)OCC(=O)C1CCC2C3CCC4=CC(=O)CCC4(C)C3CCC12C (stereo not drawn) [DEOXYCORTICOSTERONE ACETATE] |
| 1.37 min | Nc1ccn(C2CC(O)C(COP(=O)(O)O)O2)c(=O)n1 (stereo not drawn) [DEOXYCYTIDINE MONOPHOSPHATE] |
| 1.78 min | Nc1ccn(C2CC(O)C(CO)O2)c(=O)n1 (stereo not drawn) [DEOXYCYTIDINE] |
| 3.39 min | Nc1nc2c(ncn2C2CC(O)C(CO)O2)c(=O)[nH]1 (stereo not drawn) [DEOXYGUANOSINE] |
| 1.7 min | O=c1ccn(C2CC(O)C(COP(=O)(O)O)O2)c(=O)[nH]1 (stereo not drawn) [DEOXYURIDINE-MONOPHOSPHATE] |
| 3.27 min | O=c1ccn(C2CC(O)C(CO)O2)c(=O)[nH]1 (stereo not drawn) [DEOXYURIDINE] |
| 3.69 min | CC(C)(COP(=O)(O)OP(=O)(O)OCC1OC(n2cnc3c(N)ncnc32)C(O)C1O)C(O)C(=O)NCCC(=O)NCCS (stereo not drawn) [DEPHOSPHO-COA] |
| 9.25 min | CC(C)=CCCC(C)C1CCC2C3CC=C4CC(O)CCC4(C)C3CCC12C (stereo not drawn) [DESMOSTEROL] |
| 4.85 min | CC1NC(=O)NC1CCCCCC(=O)O (stereo not drawn) [DETHIOBIOTIN] |

Source: the RepoRT retention time repository
